Measurements: US11667651B2, “Aminopyridine derivatives as phosphatidylinositol phosphate kinase inhibitors” (HiberCell, Inc., priority 2017, dated 2023)

Experiments:
Type in all cases: biochemical
PIP4K2B = molecular target: T1, PIP4K2B (Homo sapiens, UniProt P78356); assay: Trans-FI P kinase assay PIP4K2B (Table 4); conditions: compounds listed under IC50 bins; read-out: Trans-FI P kinase assays: PIP4K2B IC50
T1 construct: made in house; host or cells: E. coli
T1 sequence (P78356 1-416): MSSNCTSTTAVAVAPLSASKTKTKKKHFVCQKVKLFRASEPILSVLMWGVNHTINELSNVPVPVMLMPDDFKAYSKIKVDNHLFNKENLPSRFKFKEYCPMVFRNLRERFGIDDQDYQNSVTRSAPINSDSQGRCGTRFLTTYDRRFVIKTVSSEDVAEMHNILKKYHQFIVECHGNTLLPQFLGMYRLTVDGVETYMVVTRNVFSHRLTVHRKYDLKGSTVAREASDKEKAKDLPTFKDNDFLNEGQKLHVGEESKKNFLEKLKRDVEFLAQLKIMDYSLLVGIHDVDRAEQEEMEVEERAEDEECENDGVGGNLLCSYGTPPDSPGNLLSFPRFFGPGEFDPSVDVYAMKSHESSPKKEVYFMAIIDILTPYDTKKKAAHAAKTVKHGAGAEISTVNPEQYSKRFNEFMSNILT
Excerpt: GST tagged PIP4KtypeIIA and B enzymes were overexpressed in E. Coli and purified to >80% homogeneity. Phosphatidyl inositol-5-phosphate (PI5P, Cat. #850152, Avanti Polar Lipids Inc.) was used as the lipid substrate and phosphatidyl ethanolamine (DOPE 18:1, Cat. #850725, Avanti Polar Lipids Inc.) was used as the carrier lipid for assays. Ultrapure ATP and GTP was purchased from Bellbrooke Labs. ADP Glo reagents were obtained from Promega. Transcreener FI reagent was obtained from Bellbrooke labs.
GST-tagged PIP4KtypeIIB (3.4 μL, 2.77 mg/mL) was diluted to 5 mL using HNE buffer to yield 5× enzyme stock (25 nM)
Lipid Preparation: In a 10 mL pyrex glass vial, […] were suspended in 2.5 mL of HEPES buffer mix and 2.5 mL of H:E buffer. The contents were mixed and sonicated for 3 min to yield a translucent lipid stock.
Compound Preparation: Compounds were stored as 5 mM stocks in neat DMSO as room temperature in glass vials. 5 mM stocks were diluted to 2 mM and then serially diluted (3×) in neat DMSO in 96 well polypropylene plates. From the serially diluted stocks, 3 μL was delivered into 250 μL of 25% DMSO (in water) to generate 5× compound stocks. Typically, the highest compound conc. was 24 μM.
The assay volume was kept at 25 μL. To each well of the reaction plate, 10 μL of lipid stock (1:1 ratio PI5P:DOPE) was delivered. This was followed by the addition of 5 μL of compound in 25% DMSO. Then, to each well, 5 μL of 25 nM (5×) typeIIB enzyme was delivered. The contents were mixed well and incubated for 1 h at 27° C. After 1 h, reaction was initiated by adding 5 μL of 500 μM GTP and the contents were mixed well with a multi-channel pipetteman. The final concentration of the reagents are as follows: 50 mM HEPES, pH 7.3, 10 mM MgCl2, 20 mM NaCl, 0.01% v/v triton-X100, 5% DMSO, 100 μM GTP, 80 μM (2 μg) PI5P, 2 μg DOPE, and 5 nM PIP4KIIB Typically, the highest conc. of compounds was 4.8 μM and the lowest conc. was 0.
After 2 h, the reaction was quenched by adding 25 μL of transcreener FI reagent. The contents were incubated at rt for 1 h and the Fluorescence (Ex: 584 Em: 623) was read using Molecular Devices Paradigm plate reader. […] The blanks were averaged and subtracted from all other wells. Using a calibration curve, RFU was converted to μM GDP (product). IC50 was calculated by plotting the residual activity (expressed as % No inhibitor control) vs. log [Inh. conc.]

PIP4K2A [1] = molecular target: T2, PIP4K2A (Homo sapiens, UniProt P48426); assay: ADP-glo kinase assay PIP4K 2A (Table 3); parameters: made in house; host or cells: E. coli; conditions: compounds listed under IC50 bins
T2 sequence (P48426 1-406): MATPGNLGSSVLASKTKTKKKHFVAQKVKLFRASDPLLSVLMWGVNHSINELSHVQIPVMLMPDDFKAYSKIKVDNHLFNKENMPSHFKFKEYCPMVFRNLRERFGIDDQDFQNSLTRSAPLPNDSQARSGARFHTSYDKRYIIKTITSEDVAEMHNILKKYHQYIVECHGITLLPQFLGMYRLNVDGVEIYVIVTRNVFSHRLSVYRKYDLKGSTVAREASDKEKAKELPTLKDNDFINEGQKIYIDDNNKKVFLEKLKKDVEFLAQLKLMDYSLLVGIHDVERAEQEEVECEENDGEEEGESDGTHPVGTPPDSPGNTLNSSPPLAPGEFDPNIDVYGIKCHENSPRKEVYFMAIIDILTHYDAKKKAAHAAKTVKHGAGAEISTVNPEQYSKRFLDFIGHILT
Experimental: Dilution series of the compounds were prepared in DMSO at 100 times the final assay concentration (n1=n0/3 in 10 points). The compounds were further diluted to three times the assay concentration in assay buffer (20 mM MOPS pH 7.2, 25 mM magnesium chloride, 0.005% Tween 20). 6 μL of the diluted compounds were added to a 384 well assay plate followed by 9 μL of a mix consisting of 4 nM PIP4K2A (full length protein, SignalChem) and 100 μM PI(5)P diC8 (Tebu-Bio). Enzyme and compounds were pre-incubated at room temperature for 15 minutes.
Then 3 μL of a solution containing 60 μM ATP (Promega) in assay buffer was added to the wells containing compound and enzyme and mixing was performed by pipetting several times. The reaction was incubated at room temperature for 1 h. Then 18 μL of ADP-Glo™ Reagent (Promega) was added to stop the kinase reaction and deplete the unconsumed ATP, mixing was performed by pipetting several times. The plate was incubated at room temperature for 40 minutes before addition of 36 μL of Kinase Detection Reagent (Promega) to convert ADP to ATP and introduce luciferase and luciferin to detect ATP. The reaction was incubated at room temperature for 40 minutes before the luminescence was measured in a in a Victor 3V 1420 multilabel counter (Perkin Elmer).
Percent inhibition of the compounds as compared to dimethyl sulfoxide treated control samples was calculated. Compound concentration versus percent inhibition were fitted to generate IC50 values. […]

PIP4K2A [2] = molecular target: T2, PIP4K2A; assay: Kinase Assay PIP4K2 A (Table 2); parameters: 4 nM PIP4K2A (full length protein, SignalChem); purchased SignalChem; conditions: compounds listed under IC50 bins
In short: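 ADP-Glo luminescent read-out after 1 h room-temperature kinase reaction, started with 60 μM ATP solution following 15 min compound pre-incubation. Enzyme/substrate mix: 4 nM full-length PIP4K2A plus 100 μM PI(5)P diC8; buffer MOPS pH 7.2 with 25 mM MgCl2 and Tween 20. IC50 from 10-point, 3-fold titrations normalized to DMSO.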

| Structure (SMILES) | IC50 (PIP4K2B) [nM] | IC50 (PIP4K2A [1]) [nM] | IC50 (PIP4K2A [2]) [nM] |
| --- | --- | --- | --- |
| O=C(Nc1cncc(Nc2ccc(-c3ccc(N4CCCC4=O)cc3)cn2)c1)N1CCOC(C2CC2)C1 (centres unmarked) [Example 262, 2-cyclopropyl-N-(5-((5-(4-(2-oxopyrrolidin-1-yl)phenyl)pyridin-2-yl)amino)pyridin-3-yl)morpholine-4-carboxamide] | 10 to 100 | 100 to 1000 | – |
| CN1CCN(c2nc(Nc3cnc4c(c3)N3C(=O)CC[C@H]3CO4)ncc2-c2ccc(N3CCCC3=O)cc2)CC1 [Example 281, (S)-2-((4-(4-methylpiperazin-1-yl)-5-(4-(2-oxopyrrolidin-1-yl)phenyl)pyrimidin-2-yl)amino)-6,6a,7,8-tetrahydro-9H-pyrido[2,3-b]pyrrolo[1,2-d][1,4]oxazin-9-one] | 10 to 100 | – | 1 to 10 |
| COC(=O)N1CCOc2ncc(Nc3ccc(-c4ccc(C(=O)N(C)C)cc4)cn3)cc21 [Example 93, methyl 7-((5-(4-(dimethylcarbamoyl)phenyl)pyridin-2-yl)amino)-2,3-dihydro-1H-pyrido[2,3-b][1,4]oxazine-1-carboxylate] | 10 to 100 | – | 1 to 10 |
| COc1nc(Nc2cnc3c(c2)N2C(=O)CC[C@H]2CO3)ncc1-c1ccc(-c2nncn2C)cc1 [Example 287, (S)-2-((4-methoxy-5-(4-(4-methyl-4H-1,2,4-triazol-3-yl)phenyl)pyrimidin-2-yl)amino)-6,6a,7,8-tetrahydro-9H-pyrido[2,3-b]pyrrolo[1,2-d][1,4]oxazin-9-one] | 1 to 10 | – | 1 to 10 |
| Cn1cnnc1-c1ccc(-c2ccc(Nc3cnc4c(c3)N3C(=O)CC[C@H]3CO4)nc2)cc1 [Example 291, (S)-2-((5-(4-(4-methyl-4H-1,2,4-triazol-3-yl)phenyl)pyridin-2-yl)amino)-6,6a,7,8-tetrahydro-9H-pyrido[2,3-b]pyrrolo[1,2-d][1,4]oxazin-9-one] | 10 to 100 | – | 10 to 100 |
| Cc1conc1-c1ccc(-c2ccc(Nc3cnc4c(c3)N3C(=O)CC[C@H]3CO4)nc2)cc1 [Example 283, (S)-2-((5-(4-(4-methylisoxazol-3-yl)phenyl)pyridin-2-yl)amino)-6,6a,7,8-tetrahydro-9H-pyrido[2,3-b]pyrrolo[1,2-d][1,4]oxazin-9-one] | 10 to 100 | – | 1 to 10 |
| CC(C)c1nc(Nc2cnc3c(c2)N2C(=O)CC[C@H]2CO3)ncc1-c1ccc(N2CCCC2=O)cc1 [Example 215, (S)-2-((4-isopropyl-5-(4-(2-oxopyrrolidin-1-yl)phenyl)pyrimidin-2-yl)amino)-6,6a,7,8-tetrahydro-9H-pyrido[2,3-b]pyrrolo[1,2-d][1,4]oxazin-9-one] | 1 to 10 | – | ≤ 1 |
| CC(C)Cn1cnnc1-c1ccc(-c2ccc(Nc3cnc4c(c3)N3C(=O)CC[C@H]3CO4)nc2)cc1 [Example 297, (S)-2-((5-(4-(4-isobutyl-4H-1,2,4-triazol-3-yl)phenyl)pyridin-2-yl)amino)-6,6a,7,8-tetrahydro-9H-pyrido[2,3-b]pyrrolo[1,2-d][1,4]oxazin-9-one] | 10 to 100 | – | 10 to 100 |
| CN1CC2(CCN(c3ccc(Nc4cnc5c(c4)N4C(=O)CC[C@H]4CO5)nc3)CC2)OC1=O [Example 279, (S)-2-((5-(3-methyl-2-oxo-1-oxa-3,8-diazaspiro[4.5]decan-8-yl)pyridin-2-yl)amino)-6,6a,7,8-tetrahydro-9H-pyrido[2,3-b]pyrrolo[1,2-d][1,4]oxazin-9-one] | > 1000 | – | > 1000 |
| COCc1nc(Nc2cnc3c(c2)N2C(=O)C4(CC4)C[C@H]2CO3)ncc1-c1ccc(N2CCCC2=O)cc1 [Example 202, (S)-2′-((4-(methoxymethyl)-5-(4-(2-oxopyrrolidin-1-yl)phenyl)pyrimidin-2-yl)amino)-6a′,7′-dihydro-6′H,9′H-spiro[cyclopropane-1,8′-pyrido[2,3-b]pyrrolo[1,2-d][1,4]oxazin]-9′-one] | 1 to 10 | – | 1 to 10 |
| Cn1cnnc1-c1ccc(-c2cnc(Nc3cnc4c(c3)N3C(=O)CC[C@H]3CO4)cc2C2CC2)cc1 [Example 285, (S)-2-((4-cyclopropyl-5-(4-(4-methyl-4H-1,2,4-triazol-3-yl)phenyl)pyridin-2-yl)amino)-6,6a,7,8-tetrahydro-9H-pyrido[2,3-b]pyrrolo[1,2-d][1,4]oxazin-9-one] | 10 to 100 | – | 10 to 100 |
| O=C(COc1cccc2c1C(=O)N(C1CCC(=O)NC1=O)C2=O)NCCCC(=O)Nc1ccc(C(=O)Nc2cncc(Nc3ccc(-c4ccc(N5CCCC5=O)cc4)cn3)c2)cc1 (centres unmarked) [Example 292, 4-(4-(2-((2-(2,6-dioxopiperidin-3-yl)-1,3-dioxoisoindolin-4-yl)oxy)acetamido)butanamido)-N-(5-((5-(4-(2-oxopyrrolidin-1-yl)phenyl)pyridin-2-yl)amino)pyridin-3-yl)benzamide] | 10 to 100 | – | 100 to 1000 |
| O=C1CCC(N2C(=O)c3cccc(NCCOCCOCCOCC(=O)Nc4ccc(C(=O)Nc5cncc(Nc6ccc(-c7ccc(N8CCCC8=O)cc7)cn6)c5)cc4)c3C2=O)C(=O)N1 (centres unmarked) [Example 296, 4-(2-(2-(2-(2-((2-(2,6-dioxopiperidin-3-yl)-1,3-dioxoisoindolin-4-yl)amino)ethoxy)ethoxy)ethoxy)acetamido)-N-(5-((5-(4-(2-oxopyrrolidin-1-yl)phenyl)pyridin-2-yl)amino)pyridin-3-yl)benzamide] | 10 to 100 | – | 100 to 1000 |
